Source: patent US20060039856A1, “Magnetic resonance with stimulation” (McLean Hospital Corporation, priority 2001, published 2006)

Test system: right and left V1 (primary visual cortex) BOLD signal
Assay: BOLD fMRI of visual cortex during red and blue photic stimulation after oral drug or placebo
Conditions: for mean BOLD signal change, higher in drug than in placebo condition: all trials, 2.5 mg oral

In the case of `C[C@H](N)Cc1ccccc1.C[C@H](N)Cc1ccccc1.O=S(=O)(O)O` [d-amphetamine, d-amphetamine sulfate], the “mean BOLD signal change, higher in drug than in placebo condition” value (blue light 0.12 lux, drug vs placebo (1.60%)) is reported as 28%, the “effect of time following drug administration on BOLD signal response (linear regression)” value (blue light, Z=-2.471, P=0.013, decreasing BOLD signal over time) is reported as “significant effect of time” and the “mean BOLD signal change, higher in drug than in placebo condition” value (red light 0.12 lux, drug vs placebo (0.95%)) is reported as 30%. For the same compound, the “effect of time following drug administration on BOLD signal response (linear regression)” value (red light, Z=-0.470, P=0.638) was “no significant effect of drug over time”.
